Several values for one entry are separate records, joined by “and”; a condition that tells them apart may be missing. Equal entries are not always repeated. Structures can show the parent of a compound that is named as a salt.
Test system: C. elegans
Conditions: Table S2, C. elegans SS assay, 110 μM, averages of 4 data points

| SMILES | Percentage of motility inhibition 0 h | Percentage of motility inhibition 24 h |
| --- | --- | --- |
| Cc1nc(N(C)C(=O)Cc2ccc(-c3ccccn3)cc2)sc1S(N)(=O)=O [BAY 57‐1293] | 36% | 0% |
| COc1ccnc2[nH]cc(C(=O)C(=O)N3CCN(C(=O)c4ccccc4)C[C@H]3C)c12 [BMS‐378806] | 47% | 41% |
| CC(C)=C[C@@H]1CO[C@]23C[C@]4(CO2)[C@H](CC[C@@H]2[C@@]5(C)CC[C@H](O[C@@H]6OC[C@H](O)[C@H](O[C@@H]7O[C@H](CO)[C@@H](O)[C@H](O)[C@H]7O)[C@H]6O[C@@H]6O[C@@H](CO)[C@H](O)[C@H]6O)C(C)(C)[C@@H]5CC[C@]24C)[C@H]3[C@@]1(C)O [Bacopasaponin C] | 6% | 40% |
| CC(C)=C[C@@H]1CO[C@]23C[C@@]4(CO2)[C@@H](CC[C@@H]2[C@@]5(C)CC[C@H](O[C@H]6OC[C@H](O)[C@H](O[C@H]7O[C@H](COS(=O)(=O)O)[C@@H](O)[C@H](O)[C@H]7O)[C@H]6O[C@@H]6O[C@@H](CO)[C@H](O)[C@H]6O)C(C)(C)[C@@H]5CC[C@]24C)[C@H]3[C@@]1(C)O [Bacopaside I] | 19% | 0% |
| CC(C)=C[C@H]1C[C@](C)(O)[C@@H]2[C@H]3CC[C@@H]4[C@@]5(C)CC[C@H](O[C@@H]6OC[C@H](O)[C@H](O[C@@H]7O[C@H](CO)[C@@H](O)[C@H](O)[C@H]7O)[C@H]6O[C@@H]6O[C@@H](CO)[C@H](O)[C@H]6O)C(C)(C)[C@@H]5CC[C@@]4(C)[C@@]34CO[C@@]2(C4)O1 [Bacopaside X] | 9% | 35% |
| O=c1c(O[C@@H]2O[C@H](CO)[C@@H](O)[C@H](O)[C@H]2O[C@@H]2O[C@H](CO)[C@@H](O)[C@H](O)[C@H]2O)c(-c2ccc(O)c(O)c2)oc2cc(O)cc(O)c12 [Baimaside] | 13% | 0% |
| COc1ccc(-c2oc3c(CC=C(C)C)c(O)cc(O)c3c(=O)c2O[C@@H]2O[C@@H](C)[C@H](O)[C@@H](O)[C@H]2O)cc1 [Baohuoside I] | 0% | 0% |
| CC(C)=CCc1cc(C(=O)/C=C/c2ccc(O)cc2)c(O)cc1O [Bavachalcone] | 39% | 18% |
| CC1(C)CC[C@]2(C(=O)O)CC[C@]3(C)C(=CC[C@@H]4[C@@]5(C)C[C@H](O)[C@H](O)[C@@](C)(CO)[C@@H]5CC[C@]43C)[C@@H]2C1 [Bayogenin] | 2% | 5% |
| COC[C@]12CN(C)C3[C@@H]4[C@H](OC)[C@H]1[C@@]3([C@@H](OC)C[C@H]2O)[C@]1(O)C[C@@]2(O)[C@H](OC(=O)c3ccccc3)[C@@H]1[C@]4(OC(C)=O)[C@@H](O)[C@@H]2OC [Beiwutine] | – | 13% and 10% |
| CCN1C[C@]2(COC)[C@H](O)C[C@H](OC)[C@@]34[C@@H]5C[C@@]6(O)[C@H](OC(=O)c7ccccc7)[C@@H]5[C@@](O)([C@@H]([C@H](OC)[C@H]23)[C@@H]14)[C@@H](O)[C@@H]6OC [Benzoylaconine] | 2% | 0% |
| COC[C@@]12CC[C@H](OC)[C@]34C([C@H]([C@H](OC)[C@H]13)[C@]1(O)[C@H]3[C@@H](OC(=O)c5ccccc5)[C@](O)(C[C@H]34)[C@@H](OC)[C@@H]1O)N(C)C2 [Benzoylhypaconine] | 5% | 0% |
| COC[C@]12CN(C)C3[C@@H]4[C@H](OC)[C@H]1[C@@]3([C@@H](OC)C[C@H]2O)[C@@H]1C[C@@]2(O)[C@H](OC(=O)c3ccccc3)[C@@H]1[C@]4(O)[C@@H](O)[C@@H]2OC [Benzoylmesaconine] | 1% | 0% |
| C[N+](C)(CCOc1ccccc1)Cc1ccccc1.O=C([O-])c1cc2ccccc2cc1O [Bephenium (hydroxynaphthoate)] | 12% | 5% |
| COc1cc2c3cc1Oc1c(OC)c(OC)cc4c1[C@@H](Cc1ccc(O)c(c1)Oc1ccc(cc1)C[C@@H]3N(C)CC2)N(C)CC4 [Berbamine (dihydrochloride)] | 33% and 53% | 11% and 15% |
| COc1ccc2cc3[n+](cc2c1O)CCc1cc2c(cc1-3)OCO2.[Cl-] [Berberrubine (chloride)] | 0% | 0% |
| Cl.N[C@@H]1CCCCN(c2c(F)cc3c(=O)c(C(=O)O)cn(C4CC4)c3c2Cl)C1 [Besifloxacin (Hydrochloride)] | 6% | 32% |
| C=C(C)[C@@H]1CC[C@]2(C=O)CC[C@]3(C)[C@H](CC[C@@H]4[C@@]5(C)CC[C@H](O)C(C)(C)[C@@H]5CC[C@]43C)[C@@H]12 [Betulinaldehyde] | 7% and 0% | 3% and 9% |
| C=C(C)[C@@H]1CC[C@]2(C(=O)O)CC[C@]3(C)[C@H](CC[C@@H]4[C@@]5(C)CCC(=O)C(C)(C)[C@@H]5CC[C@]43C)[C@@H]12 [Betulonic acid] | 24% | 26% |
| C=CC1=C(C)/C(=C/C2=NC(=C\c3[nH]c(/C=C4\NC(=O)C(C)=C4C=C)c(C)c3CCC(=O)O)/C(CCC(=O)O)=C2C)NC1=O [Biliverdin (hydrochloride)] | 0% | 1% |
| COc1ccc(-c2coc3cc(O)cc(O)c3c2=O)cc1 [Biochanin A] | 7% | 0% |
| CC(=O)OC[C@@]12CC[C@@H](C)[C@](C)(CCC3=CC(=O)OC3)[C@H]1C[C@H](O)C=C2CO [Blinin] | 0% | 7% |
| COc1cc(O)c2c(c1)O[C@H](c1cc(O)cc(O)c1)CC2=O [Blumeatin] | 21% | 11% |
| C=C1C(=O)O[C@H]2C[C@@H](C)[C@@H]3[C@@H](OC(C)=O)C[C@H](O)[C@@]3(C)[C@@H](OC(C)=O)[C@H]12 [Britannin] | 14% | 5% |
| CC1=CC(=O)[C@@H](O)[C@]2(C)[C@H]3[C@@H](O)[C@H](O)[C@@]4(C)OC[C@@]35[C@@H](C[C@@H]12)OC(=O)[C@H](O)[C@]54O [Bruceine D] | 25% | 54% |
| C[C@H]1O[C@@H](O[C@H]2CC[C@@]3(C)[C@@H](CC[C@]4(C)[C@@H]3C=CC3=C5CC(C)(C)CC[C@]5(CO)[C@@H](O)C[C@]34C)[C@]2(C)CO)[C@H](O[C@@H]2O[C@H](CO)[C@@H](O)[C@H](O)[C@H]2O)[C@@H](O[C@@H]2O[C@H](CO)[C@@H](O)[C@H](O)[C@H]2O)[C@H]1O [Buddlejasaponin IVb] | 0% | 4% |
| C=C1C2CCC3(C4C[C@H]5C6(CCC[C@@]5(C)CN(CC)C46)[C@H]3[C@H]2O)[C@@H]1O [Bullatine A] | 0% | 3% |
| CN(Cc1ccc(C(C)(C)C)cc1)Cc1cccc2ccccc12.Cl [Butenafine (Hydrochloride)] | 43% | 0% |
